Read-outs that look alike come from different tables or passages of the source.
Experiments:
[1] = system: HIV; assay: microbe, parasite or virus in culture; type: cell-based; settings: Human immunodeficiency virus 1, MT4, 96 h, read-out: EC50 (50% HIV inhibition concentration), MT-4 cells, HIV, cultured four days, MTT
Method: A serial dilution series of test samples was prepared in 96-well microplates (50 μL/well).
100 μL/well in each case were dispensed onto plates having test samples of 2.5×10^5/mL MT-4 cell suspension, and HIV virus solution was then dispensed thereto in the amount of 50 μL/well. Mixing was performed using a plate mixer and culturing was performed for four days in a CO2 incubator. MTT (3-(4,5-dimethylthiazol-2-yl)-2,5-diphenyltetrazolium bromide) liquid was dispensed into each well in the amount of 30 μL in each case. The reaction was conducted for 1 h in a CO2 incubator. 150 μL of supernatant were removed from each well, taking care not to aspirate any cells. 150 μL of cell solution were added, and thorough mixing was performed with a plate mixer until all the cells had been dissolved. The optical absorbance of the mixed plates was measured at two wavelengths: 560 nm/690 nm, with a microplate reader.

[2] = system: HIV mutant strain 1 (E138K/G140S/Q148H/N155H); assay: Test Example 2: resistance evaluation test (HeLa-CD4 reporter), mutant strain 1; type: cell-based; settings: FC=EC50 of mutant strain/EC50 of wild strain; HeLa-CD4 cells
Method: (§1) A serial dilution series of test samples in 96-well microplates was prepared (50 […]).
(§2) 2.5×10^4/mL of HeLa-CD4 cell suspension was dispensed into each of the microplates containing test sample, in the amount of 100 μL/well, and HIV virus liquid (wild strain and mutant strain) was then dispensed in an amount of 50 μL/well. Mixing was performed using a plate mixer and culturing was performed for three days in a CO2 incubator. After removing the cultured supernatant of each well by suction, 100 μL of the cell solution buffer in the reporter measurement kit was dispensed thereto, and freezing was conducted in a refrigerator (−80° C.). The plates frozen in the refrigerator were defrosted at room temperature, then mixed using a plate mixer and centrifuged for 5 min at 1,200 rpm. The supernatant of each well was divided to 96-well microplates (BLACK) in the amount of 20 μL in each case. The chemiluminescence reagent in the reporter assay kit was dispensed in the amount of 100 μL in each case, and, after reacting for about 1 h at room temperature, the amount of luminescence was measured using a MicroBeta TRILUX.
(§3) The degree of resistance (fold change (FC)) of each mutant strain was also calculated using the following formula. FC=EC50 of mutant strain/EC50 of wild strain (Results)
(§4) The results of the example compounds relating to formula (I) of (A) are shown below. The […] in respect of mutant strain 1 (E138K/G140S/Q148H/N155H) and the FC in respect of mutant strain 2 (E92Q/E138T/G140S/Q148H) are shown in the Table.

[3] = system: HIV mutant strain 2 (E92Q/E138T/G140S/Q148H); assay: Test Example 2: resistance evaluation test (HeLa-CD4 reporter), mutant strain 2; type: cell-based; settings: FC=EC50 of mutant strain/EC50 of wild strain; HeLa-CD4 cells
Method: as §1, §2, §3, §4

[4] = system: HIV; assay: Test Example 3: test for confirmation of combined use effect; type: cell-based; set-up: key to D value (dosewise additivity value): <-0.1 synergy, -0.1 to 0.1 additive, >0.1 antagonism
Source text: The two compounds in respect of which the effect of combined use was desired to be examined were mixed in various ratios, and the anti-HIV activity (50% HIV inhibiting concentration) for each combination was found by the method of test example 1. […] A brief description of the method of calculating the D value is given below.
The D value that is found by evaluating the anti-HIV activity of respective combinations of M concentrations of compound X1 and N concentrations of compound X2 is calculated by the following mathematical expression 1.
The effect of combined use was evaluated in terms of the D value in accordance with the following criteria • −0.5 to −0.2: strong synergetic effect • −0.2 to −0.1: weak synergetic effect • […]: additive synergetic effect • 0.1 to 0.2: weak antagonism • 0.2 to 0.5: strong antagonism

[5] = Test Example 8: metabolic stability test; type: in vitro ADME, human; settings: pooled human liver microsomes, 30 min at 37° C., NADPH, compound concentration 0.5 μmol/L
Method: The extent of metabolization of the compound according to the present invention in the liver was evaluated by reacting commercially available pooled human liver microsomes with the compound according to the present invention for a fixed time and calculating the remaining percentage by comparing the reaction sample with an unreacted sample.
The reaction (oxidative reaction) was conducted for 0 min or 30 min at 37° C. in the presence of 1 mmol/L of NADPH, in a 0.2 mL buffer solution containing 0.5 mg of human liver microsome protein/mL (50 mmol/L Tris-HCl pH 7.4, 150 mmol/L potassium chloride, 10 mmol/L magnesium chloride). After the reaction, 50 μL of reaction liquid were added to 100 μL of methanol/acetonitrile=1/1 (v/v) solution, mixed, and centrifuged for 15 minutes at 3000 rpm. The compound according to the present invention in the centrifuged supernatant was quantified using LC/MS/MS or solid phase extraction (SPE)/MS; the residual amount of the compound according to the present invention after the reaction was calculated, taking the amount of the compound at the 0 min reaction point as 100%.

[6] = compounds of formula (I) of (A)
[7] = combination with compound (B) Compound C (CAI)
[8] = combination with compound (B) Darunavin (PI)
[9] = combination with compound (B) Darunavir (PI)
[10] = combination with compound (B) GS-6207 (CAI)
[11] = combination with compound (B) GSK2838232 (maturation inhibitor)
[12] = combination with compound (B) Lilpiperine (polymerase inhibitor)
[13] = combination with compound (B) Ramipzin (3TC) (polymerase inhibitor)
[14] = combination with compound (B) Rilpivirine (polymerase inhibitor)
[15] = combination with compound (B) I′-189 (INLAI)
[16] = combination with compound (B) VM-1500 (polymerase inhibitor)
[17] = compounds of formula (I′) of (B)

SMILES: CC(C)N1C(=O)c2c(O)c(=O)c(C(=O)NCc3ccc(F)cc3F)cn2N2CCCC[C@@H]12 [Compound I-004]
- EC50 [1, 6]: 2.5 nM

SMILES: CC(C)N1C(=O)c2c(O)c(=O)c(C(=O)NCc3c(F)cc(F)cc3F)cn2N2CCOC[C@@H]12 [II-022]
- EC50 [1, 6]: 0.39 nM

SMILES: C[C@H]1C[C@H]2N(C)C(=O)c3c(O)c(=O)c(C(=O)NCc4cccc(Cl)c4F)cn3N2C1 [II-036]
- FC in respect of mutant strain 1 (E138K/G140S/Q148H/N155H) [2]: 15
- FC in respect of mutant strain 2 (E92Q/E138T/G140S/Q148H) [3]: 7.9
- D value (dosewise additivity value) [4, 7]: 0.032
- effect of combined use [4, 7]: Additive (−0.1 to −0.1: additive synergetic effect)
- D value (dosewise additivity value) [4, 8]: −0.115
- effect of combined use [4, 9]: Weak synergy (−0.2 to −0.1: weak synergetic effect)
- D value (dosewise additivity value) [4, 10]: −0.117
- effect of combined use [4, 10]: Weak synergy (−0.2 to −0.1: weak synergetic effect)
- D value (dosewise additivity value) [4, 11]: 0.021
- effect of combined use [4, 11]: Additive (−0.1 to −0.1: additive synergetic effect)
- effect of combined use [4, 12]: Additive (−0.1 to −0.1: additive synergetic effect)
- D value (dosewise additivity value) [4, 13]: −0.184
- effect of combined use [4, 13]: Weak synergy (−0.2 to −0.1: weak synergetic effect)
- D value (dosewise additivity value) [4, 14]: −0.044
- Remaining percentage [5]: 97.4%

SMILES: CCN1C(=O)c2c(O)c(=O)c(C(=O)NCc3cccc(C(F)(F)F)c3F)cn2N2CCCC[C@@H]12 [II-074]
- EC50 [1, 6]: 18 nM

SMILES: CCN1C(=O)c2c(O)c(=O)c(C(=O)NCc3ccc(C#N)cc3)cn2N2CCCC[C@@H]12 [II-090]
- EC50 [1, 6]: 18 nM

SMILES: CN1C(=O)c2c(O)c(=O)c(C(=O)NCc3cccc(Cl)c3F)cn2N2CCCC[C@@H]12 [II-092]
- FC in respect of mutant strain 1 (E138K/G140S/Q148H/N155H) [2]: 6.8
- FC in respect of mutant strain 2 (E92Q/E138T/G140S/Q148H) [3]: 7.7
- D value (dosewise additivity value) [4, 7]: 0.056
- effect of combined use [4, 7]: Additive (−0.1 to −0.1: additive synergetic effect)
- D value (dosewise additivity value) [4, 8]: −0.117
- effect of combined use [4, 9]: Weak synergy (−0.2 to −0.1: weak synergetic effect)
- D value (dosewise additivity value) [4, 10]: −0.093
- effect of combined use [4, 10]: Additive (−0.1 to −0.1: additive synergetic effect)
- D value (dosewise additivity value) [4, 11]: 0.000
- effect of combined use [4, 11]: Additive (−0.1 to −0.1: additive synergetic effect)
- effect of combined use [4, 12]: Additive (−0.1 to −0.1: additive synergetic effect)
- D value (dosewise additivity value) [4, 13]: −0.118
- effect of combined use [4, 13]: Weak synergy (−0.2 to −0.1: weak synergetic effect)
- D value (dosewise additivity value) [4, 14]: −0.022
- Remaining percentage [5]: 101%

SMILES: CCN1C(=O)c2c(O)c(=O)c(C(=O)NCc3c(F)cc(F)cc3F)cn2N2C[C@@H](C)CC[C@@H]12 [II-096]
- FC in respect of mutant strain 1 (E138K/G140S/Q148H/N155H) [2]: 6.4
- FC in respect of mutant strain 2 (E92Q/E138T/G140S/Q148H) [3]: 8.9
- D value (dosewise additivity value) [4, 7]: 0.065
- effect of combined use [4, 7]: Additive (−0.1 to −0.1: additive synergetic effect)
- D value (dosewise additivity value) [4, 8]: −0.130
- effect of combined use [4, 9]: Weak synergy (−0.2 to −0.1: weak synergetic effect)
- D value (dosewise additivity value) [4, 10]: −0.125
- effect of combined use [4, 10]: Weak synergy (−0.2 to −0.1: weak synergetic effect)
- D value (dosewise additivity value) [4, 11]: 0.001
- effect of combined use [4, 11]: Additive (−0.1 to −0.1: additive synergetic effect)
- D value (dosewise additivity value) [4, 15]: 0.070
- effect of combined use [4, 15]: Additive (−0.1 to −0.1: additive synergetic effect)
- effect of combined use [4, 12]: Additive (−0.1 to −0.1: additive synergetic effect)
- D value (dosewise additivity value) [4, 13]: −0.177
- effect of combined use [4, 13]: Weak synergy (−0.2 to −0.1: weak synergetic effect)
- D value (dosewise additivity value) [4, 14]: −0.035
- D value (dosewise additivity value) [4, 16]: −0.115
- effect of combined use [4, 16]: Weak synergy (−0.2 to −0.1: weak synergetic effect)
- Remaining percentage [5]: 90.7%

SMILES: CN1C(=O)c2c(O)c(=O)c(C(=O)NCc3cccc(Cl)c3F)cn2N2C[C@@H]3CCC[C@@H](C3)[C@@H]12 [II-139]
- FC in respect of mutant strain 1 (E138K/G140S/Q148H/N155H) [2]: 18
- FC in respect of mutant strain 2 (E92Q/E138T/G140S/Q148H) [3]: 10
- Remaining percentage [5]: 75.4%

SMILES: CCN1C(=O)c2c(O)c(=O)c(C(=O)NCc3ccc(F)cc3F)cn2N2[C@@H](C)c3cc(F)ccc3[C@@H]12 [II-140]
- EC50 [1, 6]: 0.67 nM

SMILES: CCN1C(=O)c2c(O)c(=O)c(C(=O)NCc3ccc(F)cc3F)cn2N2C[C@@H]3CCC[C@@H](O3)[C@@H]12 [II-150]
- FC in respect of mutant strain 1 (E138K/G140S/Q148H/N155H) [2]: 26
- FC in respect of mutant strain 2 (E92Q/E138T/G140S/Q148H) [3]: 16
- Remaining percentage [5]: 98.6%

SMILES: CCN1C(=O)c2c(O)c(=O)c(C(=O)NCc3ccc(F)nc3F)cn2N2C[C@@H]3CC[C@@H](O3)[C@@H]12 [II-152]
- FC in respect of mutant strain 1 (E138K/G140S/Q148H/N155H) [2]: 36
- FC in respect of mutant strain 2 (E92Q/E138T/G140S/Q148H) [3]: 25
- Remaining percentage [5]: 105%

SMILES: Cc1ccc(-c2c([C@H](OC(C)(C)C)C(=O)O)c(C)c3c4c2cc(C)n4CCN3C)cc1 [I′-001]
- EC50 [1, 17]: 0.69 nM

SMILES: Cc1ccc(-c2c([C@H](OC(C)(C)C)C(=O)O)c(C)c3c4c2cc(C)n4CCN3CCN(C)C)cc1 [I′-027]
- EC50 [1, 17]: 9.9 nM

SMILES: COCC[C@H]1Cn2c(C)cc3c(-c4ccc(Cl)cc4)c([C@H](OC(C)(C)C)C(=O)O)c(C)c(c32)N1S(C)(=O)=O [I′-043]
- EC50 [1, 17]: 1.4 nM

SMILES: COc1cnc(N2CCn3c(C)cc4c(-c5ccc(C)cc5)c([C@H](OC(C)(C)C)C(=O)O)c(C)c2c43)nc1 [I′-189]
- EC50 [1, 17]: 1.6 nM

SMILES: Cc1ccc(-c2c([C@H](OC(C)(C)C)C(=O)O)c(C)c3c4c2cc(C)n4CCN3c2ncc(OCCN(C)C)cn2)cc1 [I′-220]
- EC50 [1, 17]: 5.9 nM

SMILES: Cc1ccc(-c2c([C@H](OC(C)(C)C)C(=O)O)c(C)c3c4c2cc(C)n4CCN3c2nc3c(s2)CCN(C)C3)cc1 [I′-292]
- EC50 [1, 17]: 2.5 nM
